According to ChEMBL document CHEMBL6134907, “Synthesis of 5,9- and 5,8-Diaminoalkoxy Substituted Benzophenanthridinone Analogues as Tyrosyl-DNA Phosphodiesterase 1 Inhibitors and Their Radiosensitizing Activity” (J Med Chem, 2025):
The source made the active and inactive calls. The rule behind the calls is not given here.

Tests used:
HCT-116 [1] = assay: Radiosensitizing activity in human HCT-116 cells assessed as induction of 2 GY ionizing radiation (IR) induced cell killing effect; assay type: functional, cell-based
[2] = target: T1, Tyrosyl-DNA phosphodiesterase 1 (Homo sapiens, UniProt Q9NUW8); assay: Inhibition of recombinant TDP1 (unknown origin) assessed as substrate cleavage using 5'-Cy5-GATCTAAAAGACTT-pY-3' DNA substrate measured after 15 mins by gel-based assay
T1 sequence (Q9NUW8 whole entry): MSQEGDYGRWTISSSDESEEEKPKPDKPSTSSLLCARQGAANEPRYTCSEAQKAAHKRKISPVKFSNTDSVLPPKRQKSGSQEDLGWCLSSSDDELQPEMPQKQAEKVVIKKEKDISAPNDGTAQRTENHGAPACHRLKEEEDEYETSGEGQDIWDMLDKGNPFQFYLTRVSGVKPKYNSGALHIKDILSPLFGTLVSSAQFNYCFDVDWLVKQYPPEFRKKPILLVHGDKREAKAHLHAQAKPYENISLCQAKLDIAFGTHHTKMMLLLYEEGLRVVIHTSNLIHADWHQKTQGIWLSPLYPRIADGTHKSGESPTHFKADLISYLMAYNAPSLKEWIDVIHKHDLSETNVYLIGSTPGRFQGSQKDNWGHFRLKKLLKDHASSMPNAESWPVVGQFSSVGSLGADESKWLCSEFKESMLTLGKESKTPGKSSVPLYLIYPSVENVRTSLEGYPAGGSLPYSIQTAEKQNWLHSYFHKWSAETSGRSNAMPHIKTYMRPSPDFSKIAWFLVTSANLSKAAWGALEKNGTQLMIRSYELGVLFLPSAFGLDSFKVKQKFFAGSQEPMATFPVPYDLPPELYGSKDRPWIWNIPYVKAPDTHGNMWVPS

[3] = target: T1, Tyrosyl-DNA phosphodiesterase 1; assay: Inhibition of recombinant TDP1 (unknown origin) assessed as substrate cleavage using 5'-Cy5-GATCTAAAAGACTT-pY-3' DNA substrate at 111 uM measured after 15 mins by gel-based assay
HCT-116 [4] = assay: Radiosensitizing activity in human HCT-116 cells assessed as sensitization of 2 GY ionizing radiation (IR) induced cell killing effect at 0.2 uM relative to control; assay type: functional
HCT-116 [5] = assay: Cytotoxicity against human HCT116 cells assessed as cell killing at 0.2 uM relative to control; assay type: functional
HCT-116 [6] = assay: Synergistic cytotoxicity against human HCT116 cells assessed as combination index at 0.5 uM incubated for 48 hrs in presence of 2GY ionizing radiation (IR); assay type: functional
HCT-116 [7] = assay: Cytotoxicity against human HCT116 cells assessed as cell killing at 0.1 uM relative to control; assay type: functional

SMILES | IC50 [2] [µM] | inhibition [3] | further results
COc1cc2c(cc1OCCCN1CCCC1)c(=O)n(CCN(C)C)c1c3cc4c(cc3ccc21)OCO4 | 5.4 |  | Activity (HCT-116 [1]): Active
COc1cc2c(cc1OCCCN1CCN(C)CC1)c(=O)n(CCN(C)C)c1c3cc4c(cc3ccc21)OCO4 | 31 |  | 
COc1cc2c(=O)n(CCN(C)C)c3c4cc5c(cc4ccc3c2cc1OCCCN1CCCCC1)OCO5 | 6.9 |  | 
COc1cc2c(=O)n(CCN(C)C)c3c4cc5c(cc4ccc3c2cc1OCCCN(C)C)OCO5 | 4.7 |  | Activity (HCT-116 [1]): Active
COc1cc2c(cc1OCCN1CCN(C)CC1)c(=O)n(CCN(C)C)c1c3cc4c(cc3ccc21)OCO4 | 46 |  | 
CCN(CC)CCOc1cc2c(=O)n(CCN(C)C)c3c4cc5c(cc4ccc3c2cc1OC)OCO5 | 20 |  | 
COc1cc2c(cc1OCCCN1CCOCC1)c(=O)n(CCN(C)C)c1c3cc4c(cc3ccc21)OCO4 | 17 |  | 
COc1cc2c(=O)n(CCN(C)C)c3c4cc5c(cc4ccc3c2cc1OCC(=O)N(C)C)OCO5 |  | inactive | 
COc1cc2c(=O)n(CCN(C)C)c3c4cc5c(cc4ccc3c2cc1OCCN(C)C)OCO5 | 12 |  | 
COc1cc2c(=O)n(CCN(C)C)c3c4cc5c(cc4ccc3c2cc1OCCN1CCSCC1)OCO5 |  | inactive | 
COc1cc2c(=O)n(CCN(C)C)c3c4cc5c(cc4ccc3c2cc1OCCCN1CCOCC1)OCO5 |  | inactive | 
COc1cc2c(cc1OCCN1CCOCC1)c(=O)n(CCN(C)C)c1c3cc4c(cc3ccc21)OCO4 |  | inactive | 
COc1cc2c(cc1OCCCn1ccnc1)c(=O)n(CCN(C)C)c1c3cc4c(cc3ccc21)OCO4 |  | inactive | 
COc1cc2c(cc1OCCN(C)C)c(=O)n(CCN(C)C)c1c3cc4c(cc3ccc21)OCO4 | 59 |  | 
CCN(CC)C(=O)COc1cc2c(cc1OC)c(=O)n(CCN(C)C)c1c3cc4c(cc3ccc21)OCO4 |  | inactive | 
COc1cc2c(=O)n(CCN(C)C)c3c4cc5c(cc4ccc3c2cc1OCCCc1ccccc1)OCO5 |  | inactive | 
CCN(CC)CCOc1cc2c(cc1OC)c(=O)n(CCN(C)C)c1c3cc4c(cc3ccc21)OCO4 | 43 |  | 
COc1cc2c(=O)n(CCN(C)C)c3c4cc5c(cc4ccc3c2cc1OCCCNC12CC3CC(CC(C3)C1)C2)OCO5 | 1.6 |  | Activity (HCT-116 [1]): Active
CCN(CC)CCCOc1cc2c(=O)n(CCN(C)C)c3c4cc5c(cc4ccc3c2cc1OC)OCO5 | 6.4 |  | 

SMILES | IC50 [2] [µM] | inhibition [3] | further results
CCN(CC)CCCOc1cc2c(cc1OC)c(=O)n(CCN(C)C)c1c3cc4c(cc3ccc21)OCO4 | 10 |  | Activity (HCT-116 [1]): Active
COc1cc2c(=O)n(CCN(C)C)c3c4cc5c(cc4ccc3c2cc1OCCN1CCCC1)OCO5 |  | inactive | 
COc1cc2c(cc1OCCCN1CCCCC1)c(=O)n(CCN(C)C)c1c3cc4c(cc3ccc21)OCO4 | 7.4 |  | Activity (HCT-116 [1]): Active
COc1cc2c(cc1OCCn1ccnc1)c(=O)n(CCN(C)C)c1c3cc4c(cc3ccc21)OCO4 |  | inactive | 
COc1cc2c(=O)n(CCN(C)C)c3c4cc5c(cc4ccc3c2cc1OCCCn1ccnc1)OCO5 |  | inactive | 
COc1cc2c(=O)n(CCN(C)C)c3c4cc5c(cc4ccc3c2cc1OCCn1ccnc1)OCO5 | 33 |  | 
COc1cc2c(cc1OCCN1CCCC1)c(=O)n(CCN(C)C)c1c3cc4c(cc3ccc21)OCO4 | 29 |  | 
COc1cc2c(=O)n(CCN(C)C)c3c4cc5c(cc4ccc3c2cc1OCCN1CCN(C)CC1)OCO5 | 6 |  | Activity (HCT-116 [1]): Active
CCCCN(CCCC)CCOc1cc2c(cc1OC)c(=O)n(CCN(C)C)c1c3cc4c(cc3ccc21)OCO4 | 23 |  | 
COc1cc2c(cc1OCCCN(C)C)c(=O)n(CCN(C)C)c1c3cc4c(cc3ccc21)OCO4 | 9.3 |  | Activity (HCT-116 [1]): Active
COc1cc2c(=O)n(CCN(C)C)c3c4cc5c(cc4ccc3c2cc1OCCCN1CCN(C)CC1)OCO5 | 7.8 |  | Activity (HCT-116 [1]): Active
COc1cc2c(=O)n(CCN(C)C)c3c4cc5c(cc4ccc3c2cc1OCCCN1CCSCC1)OCO5 | 5.7 |  | Activity (HCT-116 [4]): 93%; Activity (HCT-116 [5]): 73%; CI (HCT-116 [6]): <0.3; Activity (HCT-116 [1]): Active; Activity (HCT-116 [7]): 19%
COc1cc2c(=O)n(CCN(C)C)c3c4cc5c(cc4ccc3c2cc1OCCCN1CCCC1)OCO5 | 3.6 |  | Activity (HCT-116 [1]): Active
COc1cc2c(=O)n(CCN(C)C)c3c4cc5c(cc4ccc3c2cc1OCCN1CCCCC1)OCO5 | 22 |  | 
CCCCN(CCCC)CCCOc1cc2c(cc1OC)c(=O)n(CCN(C)C)c1c3cc4c(cc3ccc21)OCO4 | 31 |  | 
COc1cc2c(cc1OCCN1CCCCC1)c(=O)n(CCN(C)C)c1c3cc4c(cc3ccc21)OCO4 | 16 |  | 
COc1cc2c(=O)n(CCN(C)C)c3c4cc5c(cc4ccc3c2cc1OCC(=O)N1CCOCC1)OCO5 |  | inactive | 
COc1cc2c(=O)n(CCN(C)C)c3c4cc5c(cc4ccc3c2cc1OCCc1ccccc1)OCO5 |  | inactive | 
